# Assay results from patent publication US20100311674A1, “PHARMACEUTICAL COMPOSITIONS WITH A MECHANISM OF MULTI-TARGET RECEPTOR RETROACTION FOR TREATING DEPRESSION” (Yu-Fen Chi, priority 2007, published 2010).
# Legend:
# Assay type in all cases: in vivo
# ICR mice = test: Mouse swimming by compulsion experiment (Experiment 10)
# Protocol: 10.1 Experiment pharmaceuticals: The pharmaceutical of Embodiment 5 is provided by Beijing Wonner Biotech. […] Above-mentioned pharmaceuticals are prepared with physiological saline for feeding into the stomach. 10.2 Experimental animals: ICR mice, male, 20.0±1 g of body weight, secondary, are provided by the Experimental Animal Science Department of Capital Medical University, Beijing. The quality certificate number of mice is SCXK (JING) 2006-2008. 10.4 Experimental method: The mouse group and the administration of drugs are like the mouse tail-hanging experiment. The experiment is proceeded in tested mouse in each group after 1 hour of the administration of drug. The mouse is trained to swim for 15 minutes before the experiment and on the eighth day. After 24 hours, the experiment is performed. The mouse is placed in the glass tank having 10 cm of the water depth, 14 cm of the diameter and at 25° C. of the water temperature. The accumulative time of non-movement of the mouse in the water for the last 5 minutes is recorded. 10.5 Statistic calculation: The experimental data are represented as X+SD, and the experimental result is calculated as one-way ANOVA by SPSS 11.5 statistic software.
# [1] = test system: unpredictable long-term stimulus model; test: Rat swimming by compulsion, unpredictable long-term stimulus model (Experiment 8); settings: 2 mg/kg/d into the stomach, 24 days; 1 h after dose; last 5 minutes
# Protocol: Unpredictable long-term stimulus model: Health Wistar male rats, secondary, 240˜270 g of body weight, are purchased from Beijing Vital River Experimental Animal Technology Ltd. Co. (The quality certificate number: SOCK (JING) 2002-2003).
# (§1) The above pharmaceuticals are prepared with 0.5% of sodium carboxymethylcellulose (CMC-Na) for feeding into the stomach. Benzylpenicillin sodium for injection is the product of North China Pharmaceutical Huasheng Co. Ltd. (Lot: S0511204), and norepinephrine (NE) and 5-hydrotryptamine (5-HT) standards are the products of Sigma Co. Other reagents are all marketed.
# 8.4.1 Group division and administration of drug: The rats are grouped randomly into 6 groups. 1. False therapy group; 2. model group (control); 3. high dose of Embodiment 4 (60 mg/kg/d); 4. middle dose of Embodiment 4 (30 mg/kg/d); 5. low dose of Embodiment 4 (15 mg/kg/d); and 6. […]
# 8.5.3 Rat swimming by compulsion: This experiment is proceeded for two days after the last administration of drug. […] After 1 hour of administration of drug, the rat is placed in the tank, and the time of non-movement of the rat for the last 5 minutes is recorded.
# 8.6 Statistic calculation: The experimental data are represented as […], and the experimental result is calculated as ANOVA by SPSS 11.5 statistic software.
# [2] = test system: rat olfactory bulb lesion model; test: Open field activity experiment of the rat olfactory bulb lesion model (Experiment 7); settings: 2 mg/kg/d into the stomach, 24 days; within 3 minutes
# Protocol: Olfactory bulb lesion model: Health Wistar male rats, secondary, 330±20 g of body weight, are purchased from Beijing Vital River Experimental Animal Technology Ltd. Co. (The quality certificate number: SCXK (JING) 2002-2003).
# as §1
# 7.4.1 Group division and administration of drug: The rats are grouped randomly into 6 groups. 1. […]
# 7.5.1 Open field activity experiment: The open field activity box (1 m×1 m×0.4 m) is constructed by the light blue plywood and the aluminum alloy frame. […] The rat is placed in the center of the central grids, and the rat's cross-grid number (the number of crossing into the neighboring gird more than 3 claws) and rat's standing number (two forelimbs leaving the ground for more than 1 cm) are calculated/observed within 3 minutes.
# 7.6 Statistic calculation: The experimental data are represented as X+SD, and the experimental result is calculated as ANOVA by SPSS 11.5 statistic software.
smiles,measurement,setting,value
Fc1ccc([C@@H]2CCNC[C@H]2COc2ccc3c(c2)OCO3)cc1 [Paroxetine],Time of non-movement,"ICR mice; 3 mg/kg/d into the stomach, 1 h after dose, water 25° C., last 5 minutes",57.80 ± 38.07 s
same,"Effect on accumulative time of non-movement, swimming by compulsion (in words)","ICR mice; high, middle and low doses of Embodiment 5, Paroxetine",obviously decrease the accumulative time of non-movement
same,Time of non-movement,[1],31.38 ± 19.59 s
same,Horizontal movement (cross-grid number),[2],55.36 ± 25.96
same,Vertical movement (standing number),[2],14.36 ± 5.55
